US20180303807A1, “ANDROGEN RECEPTOR LIGANDS” (DUKE UNIVERSITY, priority 2015, published 2018)
Residue numbers refer to the chain shown, from its start.

How the values were obtained:
[1] = target: T1, AR (Homo sapiens, UniProt P10275); test: Reporter gene assay, AR transcriptional (MMTV-Luc) in CV1 cells; type: cell-based; conditions: pcDNA-AR + MMTV-Luc, 0.1 nM R1881 plus test compound, 24 hrs, read-out: B1 = AR transcriptional IC50 (μM) in CV1 cells
T1 construct: expressed in transfected cells; host or cells: CV1 cells
T1 sequence (P10275 1-920): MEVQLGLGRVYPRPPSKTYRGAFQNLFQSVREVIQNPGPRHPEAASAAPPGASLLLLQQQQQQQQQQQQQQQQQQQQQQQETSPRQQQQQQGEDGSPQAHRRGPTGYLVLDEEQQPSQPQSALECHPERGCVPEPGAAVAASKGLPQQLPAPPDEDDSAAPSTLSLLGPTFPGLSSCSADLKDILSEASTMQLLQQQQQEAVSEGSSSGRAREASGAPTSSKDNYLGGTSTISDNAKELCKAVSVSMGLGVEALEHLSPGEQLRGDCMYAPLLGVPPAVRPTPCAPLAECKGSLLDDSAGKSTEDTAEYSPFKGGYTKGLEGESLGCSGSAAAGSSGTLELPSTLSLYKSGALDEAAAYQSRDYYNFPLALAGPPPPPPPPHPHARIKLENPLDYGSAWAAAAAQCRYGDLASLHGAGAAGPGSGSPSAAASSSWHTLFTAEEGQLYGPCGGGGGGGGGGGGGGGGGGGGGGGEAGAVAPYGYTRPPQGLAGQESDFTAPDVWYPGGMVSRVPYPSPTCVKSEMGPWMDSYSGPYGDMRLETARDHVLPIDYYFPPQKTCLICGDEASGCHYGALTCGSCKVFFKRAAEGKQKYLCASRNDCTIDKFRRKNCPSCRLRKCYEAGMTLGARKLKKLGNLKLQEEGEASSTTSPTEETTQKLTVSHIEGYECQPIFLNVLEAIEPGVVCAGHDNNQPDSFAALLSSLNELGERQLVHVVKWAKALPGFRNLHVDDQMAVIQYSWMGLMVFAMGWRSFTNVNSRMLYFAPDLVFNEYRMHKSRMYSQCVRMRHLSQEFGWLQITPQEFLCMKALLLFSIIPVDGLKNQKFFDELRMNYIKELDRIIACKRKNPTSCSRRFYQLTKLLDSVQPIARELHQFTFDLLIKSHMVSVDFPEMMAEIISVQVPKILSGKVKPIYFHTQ
Method in brief: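 CV1 cells transiently co-transfected with human AR, MMTV-Luc reporter and Renilla-Luc (transfection efficiency and toxicity read-out), then stimulated 24 h with 0.1 nM R1881 plus increasing test compound concentrations. Firefly and Renilla luciferase quantified by dual-luciferase assay; IC50 derived from concentration-response.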

[2] = target: T2, AR (Homo sapiens, UniProt P10275, T878A); test: In Cell Western AR degradation assay in LNCaP cells; type: cell-based; conditions: 18 hrs, greater than 50% degradation at 10 μM (method says 20 μM)
T2 construct: endogenous in cells; host or cells: LNCaP cells
T2 sequence (P10275 1-920 T878A): T1 sequence (P10275 1-920) with T878A
Procedure: In Cell Western (AR degradation Assay, Table 2, B10). LNCaP cells were plated in 96-well clear bottom black plates (20K cells/well) in RPMI supplemented with 8% CFS. Following 48 hr incubation, cells were treated with hormone (20 μM test compound) for 18 hrs. Cells were fixed with formaldehyde (3.7%) and permeabilized using PBS (0.1% TRITON X-100). Cells were incubated with anti-AR antibody (N20, 1:2000), washed with PBS (0.1% Tween), and stained with 2nd antibody (Biotium CF770 goat anti-rabbit, 1:2000). AR protein expression was assessed using the LI-COR Odyssey imaging system. DRAQ5 (DNA stain, 1:10,000, Thermo Scientific) was used to normalize AR protein expression.
For B4-B7, scoring system is based on the relative AR target gene agonist/antagonist activity of test compounds when compared to benchmark compounds enzalutamide or bicalutamide. […] The lack of agonist activity is desirable for therapies intended to treat CRPC. For B4 and B6, a score of 1 indicates less agonism (highly desired activity) than benchmark compound enzalutamide, a score of 2 indicates equal agonism to enzalutamide (desirable), a score of 3 indicates agonism between enzalutamide and bicalutamide (less desirable activity), a score of 4 indicates equal agonism to bicalutamide (liability), and a score of 5 indicates higher agonism than bicalutamide (liability). For B5 and B7 a score of 1 indicates higher antagonist efficacy (highly desired activity) than benchmark compound enzalutamide, a score of 2 indicates equal antagonist efficacy to enzalutamide (desirable), a score of 3 indicates antagonist efficacy between enzalutamide and bicalutamide (less desirable activity), a score of 4 indicates antagonist efficacy equal to bicalutamide (liability), and a score of 5 indicates antagonist efficacy worse than bicalutamide (liability) For B9, Compounds that degrade AR (greater than 50% degradation at 10 μM) are indicated.

Row | Structure (SMILES) | IC50 [1] | B9 = AR degradation in LNCaP cells (In-Cell Western) [2]
1 | Cc1ccc(C2C3=C(CC(C)(C)CC3=O)Nc3ccc4ncccc4c32)s1 (racemic) [Compound A103, (±)-9,9-dimethyl-12-(5-methylthiophen-2-yl)-8,9,10,12-tetrahydrobenzo[b][4,7]phenanthrolin-11(7H)-one] | 0.3 µM | Degrader (Compounds that degrade AR (greater than 50% degradation at 10 μM) are indicated)
2 | CC1(C)CC(=O)C2=C(C1)Nc1ccc3ncccc3c1C2c1cc(C(F)(F)F)cc(C(F)(F)F)c1 (centres unmarked) [Compound A50] | 6 µM | Degrader (Compounds that degrade AR (greater than 50% degradation at 10 μM) are indicated)
3 | CC1(C)CC(=O)C2=C(C1)Nc1ccc3ncccc3c1C2c1ccccn1 (centres unmarked) [Compound A57, 9,9-dimethyl-12-(pyridin-2-yl)-8,9,10,12-tetrahydrobenzo[b][4,7]phenanthrolin-11(7H)-one] | > 10 µM | Degrader (Compounds that degrade AR (greater than 50% degradation at 10 μM) are indicated)
4 | CC1(C)CC(=O)C2=C(C1)Nc1ccc3c(c1C2c1ccc(F)c(F)c1)OCO3 (centres unmarked) [Compound A59] | > 10 µM | Degrader (Compounds that degrade AR (greater than 50% degradation at 10 μM) are indicated)
5 | CC1(C)CC(=O)C2=C(C1)Nc1ccc3ncccc3c1C2c1ccc(Cl)s1 (centres unmarked) [Compound A64] | 1.9 µM | Degrader (Compounds that degrade AR (greater than 50% degradation at 10 μM) are indicated)
6 | CC1(C)CC(=O)C2=C(C1)Nc1ccc3ncccc3c1C2c1nccs1 (centres unmarked) [Compound A67] | > 10 µM | Degrader (Compounds that degrade AR (greater than 50% degradation at 10 μM) are indicated)
7 | CC1(C)CC(=O)C2=C(C1)Nc1ccc3ncccc3c1C2c1c[nH]c2ccc(F)cc12 (centres unmarked) [Compound A68] | > 10 µM | Degrader (Compounds that degrade AR (greater than 50% degradation at 10 μM) are indicated)
8 | CC1(C)CC(=O)C2=C(C1)Nc1ccc3ncccc3c1C2c1ccsc1 (centres unmarked) [Compound A69] | 6.1 µM | Degrader (Compounds that degrade AR (greater than 50% degradation at 10 μM) are indicated)
9 | CC1(C)CC(=O)C2=C(C1)Nc1ccc3ncccc3c1C2c1cccc(C(F)(F)F)c1 (centres unmarked) [Compound A70] | > 10 µM | Degrader (Compounds that degrade AR (greater than 50% degradation at 10 μM) are indicated)
10 | CC1(C)CC(=O)C2=C(C1)Nc1ccc3ncccc3c1C2c1ccc(C#N)c(F)c1 (centres unmarked) [Compound A72] | 7.7 µM | Degrader (Compounds that degrade AR (greater than 50% degradation at 10 μM) are indicated)
11 | CC1(C)CC(=O)C2=C(C1)Nc1ccc3ncccc3c1C2c1ccc(F)c(Br)c1 (centres unmarked) [Compound A74] | 8.6 µM | Degrader (Compounds that degrade AR (greater than 50% degradation at 10 μM) are indicated)
12 | CC1(C)CC(=O)C2=C(C1)Nc1ccc3ncccc3c1C2c1cc(Br)c(Br)s1 (centres unmarked) [Compound A76] | 2.2 µM | Degrader (Compounds that degrade AR (greater than 50% degradation at 10 μM) are indicated)
13 | Cn1ncc2ccc3c(c21)C(c1ccc(F)c(F)c1)C1=C(CC(C)(C)CC1=O)N3 (centres unmarked) [Compound A78] | > 10 µM | Degrader (Compounds that degrade AR (greater than 50% degradation at 10 μM) are indicated)
14 | CC1(C)CC(=O)C2=C(C1)Nc1ccc3c(c1C2c1ccc(Cl)s1)OCO3 (centres unmarked) [Compound A107] | 0.9 µM | Degrader (Compounds that degrade AR (greater than 50% degradation at 10 μM) are indicated)

Now from value to compound, other results behind:

Row | IC50 [1] | Structure (SMILES) | B9 = AR degradation in LNCaP cells (In-Cell Western) [2]
15 | 1.2 µM | CC1(C)CC(=O)C2=C(C1)Nc1ccc3ccccc3c1C2c1ccc([N+](=O)[O-])cc1 (centres unmarked) [Compound A51, 9,9-dimethyl-12-(4-nitrophenyl)-8,9,10,12-tetrahydrobenzo[a]acridin-11(7H)-one] | Degrader (Compounds that degrade AR (greater than 50% degradation at 10 μM) are indicated)
16 | > 10 µM | CC1(C)CC(=O)C2=C(C1)Nc1ccc3ncccc3c1C2c1ccc(C#N)cc1 (centres unmarked) [Compound A55] | Degrader (Compounds that degrade AR (greater than 50% degradation at 10 μM) are indicated)
17 | 1.7 µM | CC1(C)CC(=O)C2=C(C1)Nc1ccc3ncccc3c1C2c1csc([N+](=O)[O-])c1 (centres unmarked) [Compound A60] | Degrader (Compounds that degrade AR (greater than 50% degradation at 10 μM) are indicated)
18 | 1.8 µM | CC1(C)CC(=O)C2=C(C1)Nc1ccc3ncccc3c1C2c1cc(Br)cs1 (centres unmarked) [Compound A61] | Degrader (Compounds that degrade AR (greater than 50% degradation at 10 μM) are indicated)
19 | > 10 µM | CC1(C)CC(=O)C2=C(C1)Nc1ccc3ncccc3c1C2c1sccc1Br (centres unmarked) [Compound A62] | Degrader (Compounds that degrade AR (greater than 50% degradation at 10 μM) are indicated)
20 | 1.9 µM | CC1(C)CC(=O)C2=C(C1)Nc1ccc3ncccc3c1C2c1ccc(Br)s1 (centres unmarked) [Compound A63] | Degrader (Compounds that degrade AR (greater than 50% degradation at 10 μM) are indicated)
21 | 6.9 µM | CC1(C)CC(=O)C2=C(C1)Nc1ccc3ncccc3c1C2c1ccc(Cl)nc1 (centres unmarked) [Compound A71] | Degrader (Compounds that degrade AR (greater than 50% degradation at 10 μM) are indicated)
22 | > 10 µM | CC1(C)CC(=O)C2=C(C1)Nc1ccc3ncccc3c1C2c1ccc(Cl)c([N+](=O)[O-])c1 (centres unmarked) [Compound A75] | Degrader (Compounds that degrade AR (greater than 50% degradation at 10 μM) are indicated)
